Experimental data published in US12410208B2, “(2-acetamidyl)thio-beta-D-galactopyranoside derivatives” (Idorsia Pharmaceuticals Ltd, priority 2020, dated 2025).
Like-named read-outs stand apart in the source and are kept apart here.

Columns and labels:
[1] = biological target: biotinylated human Gal-3 (hGal-3) (Homo sapiens, UniProt P17931); experiment: Competitive binding assay: biotinylated hGal-3 binding to microplate-adsorbed asialofetuin (ASF), spectrophotometric
Procedure, shortened: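 Serially diluted compounds competed with asialofetuin on the plate for biotinylated human Gal-3 during a 3 h incubation at 4° C. Streptavidin-peroxidase with ABTS gave the spectrophotometric signal. IC50 values were averaged over repeat runs.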

human Gal-1 (hGal-1) = human Gal-1 (hGal-1) (Homo sapiens, UniProt P09382); experiment: Competitive binding assay: biotinylated hGal-1 binding to microplate-adsorbed asialofetuin (ASF), spectrophotometric; settings: hGal-1 binding to asialofetuin; Table 15; R and S epimers of selected Examples also listed; read-out: IC50 (Galectin-1 inhibition)
Procedure, shortened: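 Spectrophotometric competition readout with ABTS after streptavidin-peroxidase (80 ng/mL, 1 h, 4 °C) detection of bound biotinylated hGal-1.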

[2] = Table 11, hGal-3, read-out: IC50 (Gal-3 inhibition)
[3] = Table 8, hGal-3, read-out: IC50 (Gal-3 inhibition)
[4] = Gal-3 inhibition, Table 5, read-out: IC50

human Gal-1 (hGal-1), sequence (P09382 whole entry): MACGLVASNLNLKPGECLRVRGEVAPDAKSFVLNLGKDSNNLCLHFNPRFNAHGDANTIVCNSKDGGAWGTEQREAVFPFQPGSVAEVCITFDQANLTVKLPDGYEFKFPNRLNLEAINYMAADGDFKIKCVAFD
biotinylated human Gal-3 (hGal-3), sequence (P17931 whole entry): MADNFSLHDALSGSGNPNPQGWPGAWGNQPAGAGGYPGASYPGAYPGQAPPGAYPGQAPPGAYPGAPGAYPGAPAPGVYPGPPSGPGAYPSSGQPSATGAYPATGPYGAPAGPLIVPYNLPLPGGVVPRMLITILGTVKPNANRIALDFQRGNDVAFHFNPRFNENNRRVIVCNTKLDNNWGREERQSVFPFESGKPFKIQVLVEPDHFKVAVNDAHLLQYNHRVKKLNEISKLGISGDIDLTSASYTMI

Compound | IC50 [1, 2] [nM] | IC50 (human Gal-1 (hGal-1)) [nM] | IC50 [1, 3] [nM] | IC50 [1, 4] [nM]
CCN(C)C(=O)C(S[C@@H]1O[C@H](CO)[C@H](O)[C@H](n2cc(-c3nc(Br)cs3)nn2)[C@H]1O)C1(O)CCOCC1 (stereo partly drawn) [Example 14.41.203., 2-(((2S,3R,4S,5R,6R)-4-(4-(4-Bromothiazol-2-yl)-1H-1,2,3-triazol-1-yl)-3,5-dihydroxy-6-(hydroxymethyl)tetrahydro-2H-pyran-2-yl)thio)-N-ethyl-2-(4-hydroxytetrahydro-2H-pyran-4-yl)-N-methylacetamide] | 150 | 30 |  | 
CCN(C)C(=O)C(S[C@@H]1O[C@H](CO)[C@H](O)[C@H](n2cc(-c3cc(F)c(F)c(Cl)c3)nn2)[C@H]1O)C1(O)CCOCC1 (stereo partly drawn) [Example 15.41.203., 2-(((2S,3R,4S,5R,6R)-4-(4-(3-Chloro-4,5-difluorophenyl)-1H-1,2,3-triazol-1-yl)-3,5-dihydroxy-6-(hydroxymethyl)tetrahydro-2H-pyran-2-yl)thio)-N-ethyl-2-(4-hydroxytetrahydro-2H-pyran-4-yl)-N-methylacetamide] | 60 | 80 |  | 
CCN(C)C(=O)C(S[C@@H]1O[C@H](CO)[C@H](O)[C@H](n2cc(-c3ccc(F)c(F)c3)nn2)[C@H]1O)C1(O)CCOCC1 (stereo partly drawn) [Example 16.41.203., 2-(((2S,3R,4S,5R,6R)-4-(4-(3,4-Difluorophenyl)-1H-1,2,3-triazol-1-yl)-3,5-dihydroxy-6-(hydroxymethyl)tetrahydro-2H-pyran-2-yl)thio)-N-ethyl-2-(4-hydroxytetrahydro-2H-pyran-4-yl)-N-methylacetamide] | 60 | 130 |  | 
CCN(C)C(=O)C(S[C@@H]1O[C@H](CO)[C@H](O)[C@H](n2cc(-c3cc(F)c(Cl)c(Cl)c3)nn2)[C@H]1O)C1(O)CCOCC1 (stereo partly drawn) [Example 17.41.203., 2-(((2S,3R,4S,5R,6R)-4-(4-(3,4-Dichloro-5-fluorophenyl)-1H-1,2,3-triazol-1-yl)-3,5-dihydroxy-6-(hydroxymethyl)tetrahydro-2H-pyran-2-yl)thio)-N-ethyl-2-(4-hydroxytetrahydro-2H-pyran-4-yl)-N-methylacetamide] | 40 | 140 |  | 
CCN(C)C(=O)C(S[C@@H]1O[C@H](CO)[C@H](O)[C@H](n2cc(-c3cc(F)c(Br)c(F)c3)nn2)[C@H]1O)C1(O)CCOCC1 (stereo partly drawn) [Example 18.41.203., 2-(((2S,3R,4S,5R,6R)-4-(4-(4-Bromo-3,5-difluorophenyl)-1H-1,2,3-triazol-1-yl)-3,5-dihydroxy-6-(hydroxymethyl)tetrahydro-2H-pyran-2-yl)thio)-N-ethyl-2-(4-hydroxytetrahydro-2H-pyran-4-yl)-N-methylacetamide] | 40 | 350 |  | 
CCN(C)C(=O)C(S[C@@H]1O[C@H](CO)[C@H](O)[C@H](n2cc(-c3cc(C)cc(C#N)c3)nn2)[C@H]1O)C1(O)CCOCC1 (stereo partly drawn) [Example 19.41.203., 2-(((2S,3R,4S,5R,6R)-4-(4-(3-Cyano-5-methylphenyl)-1H-1,2,3-triazol-1-yl)-3,5-dihydroxy-6-(hydroxymethyl)tetrahydro-2H-pyran-2-yl)thio)-N-ethyl-2-(4-hydroxytetrahydro-2H-pyran-4-yl)-N-methylacetamide] | 150 | 150 |  | 
CCN(C)C(=O)C(S[C@@H]1O[C@H](CO)[C@H](O)[C@H](n2cc(-c3cc(C)cc(F)c3)nn2)[C@H]1O)C1(O)CCOCC1 (stereo partly drawn) [Example 20.41.203., N-ethyl-2-(((2S,3R,4S,5R,6R)-4-(4-(3-Fluoro-5-methylphenyl)-1H-1,2,3-triazol-1-yl)-3,5-dihydroxy-6-(hydroxymethyl)tetrahydro-2H-pyran-2-yl)thio)-2-(4-hydroxytetrahydro-2H-pyran-4-yl)-N-methylacetamide] | 60 | 180 |  | 
(2R,3R,4S,5R,6S)-2-(Acetoxymethyl)-6-(((R)-2-(ethyl(methyl)amino)-1-(3-hydroxy-1-(methoxycarbonyl)azetidin-3-yl)-2-oxoethyl)thio)-4-(4-(3,4,5-trifluorophenyl)-1H-1,2,3-triazol-1-yl)tetrahydro-2H-pyran-3,5-diyl diacetate [Example 2.58.203R.] |  | 1180 | 450 | 
(2R,3R,4S,5R,6S)-2-(Acetoxymethyl)-6-(((S)-2-(ethyl(methyl)amino)-1-(3-hydroxy-1-(methoxycarbonyl)azetidin-3-yl)-2-oxoethyl)thio)-4-(4-(3,4,5-trifluorophenyl)-1H-1,2,3-triazol-1-yl)tetrahydro-2H-pyran-3,5-diyl diacetate [Example 2.58.203S.] |  | 100 | 30 | 
(R)-2-(((2S,3R,4S,5R,6R)-3,5-Dihydroxy-6-(hydroxymethyl)-4-(4-(3,4,5-trifluorophenyl)-1H-1,2,3-triazol-1-yl)tetrahydro-2H-pyran-2-yl)thio)-2-(1-hydroxycyclohexyl)-N-methyl-N-(pyridin-2-ylmethyl)acetamide [Example 2.39.224R.] |  | 2820 |  | 1400
(R)-N-Cyclobutyl-2-(4,4-difluoro-1-hydroxycyclohexyl)-2-(((2S,3R,4S,5R,6R)-3,5-dihydroxy-6-(hydroxymethyl)-4-(4-(3,4,5-trifluorophenyl)-1H-1,2,3-triazol-1-yl)tetrahydro-2H-pyran-2-yl)thio)-N-methylacetamide [Example 2.44.206R.] |  | 1480 |  | 440
(S)-2-(4,4-Difluoro-1-hydroxycyclohexyl)-2-(((2S,3R,4S,5R,6R)-3,5-dihydroxy-6-(hydroxymethyl)-4-(4-(3,4,5-trifluorophenyl)-1H-1,2,3-triazol-1-yl)tetrahydro-2H-pyran-2-yl)thio)-1-(piperidin-1-yl)ethan-1-one [Example 2.44.208S.] |  | 30 |  | 20
(S)-2-(((2S,3R,4S,5R,6R)-3,5-Dihydroxy-6-(hydroxymethyl)-4-(4-(3,4,5-trifluorophenyl)-1H-1,2,3-triazol-1-yl)tetrahydro-2H-pyran-2-yl)thio)-2-(1-hydroxycyclohexyl)-N-methyl-N-(pyridin-2-ylmethyl)acetamide [Example 2.39.224S.] |  | 70 |  | 60
(S)-N-Cyclobutyl-2-(4,4-difluoro-1-hydroxycyclohexyl)-2-(((2S,3R,4S,5R,6R)-3,5-dihydroxy-6-(hydroxymethyl)-4-(4-(3,4,5-trifluorophenyl)-1H-1,2,3-triazol-1-yl)tetrahydro-2H-pyran-2-yl)thio)-N-methylacetamide [Example 2.44.206S.] |  | 190 |  | 40
N-Cyclopropyl-4-(2-(ethyl(methyl)amino)-1-(((2S,3R,4S,5R,6R)-5-hydroxy-6-(hydroxymethyl)-3-methoxy-4-(4-(3,4,5-trifluorophenyl)-1H-1,2,3-triazol-1-yl)tetrahydro-2H-pyran-2-yl)thio)-2-oxoethyl)-4-hydroxypiperidine-1-carboxamide [Example 2.49.226.I.] |  | 180 | 100 | 
